Consider eleven compounds from US11667602B2, “Compounds and their use” (AstraZeneca AB, priority 2020, dated 2023).

The conditions of data set [1]: cited from earlier work.
Data set [2] in a line: Human Hepatocyte Stability (Test D). Type of data set: in vitro ADME. Particulars: human, cryopreserved pooled human hepatocytes (LiverPool 10-Donor), geometric mean if run multiple times. The method, boiled down:
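Intrinsic clearance (μL/min/10^6 cells), derived as kV/N from the log-linear loss of parent compound. Compound incubated at 37 °C with cryopreserved pooled human hepatocytes, 0.25×10^6 cells in 0.25 mL L-15; dosing solution 100 μM in acetonitrile. Singlicate incubations, cassette LC-MS; repeats reported as geometric mean.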

Data set [3] in a line: Human Liver Microsomal Stability (Test C). The data set is classed as in vitro ADME. Particulars: human, liver microsomes. The method, boiled down: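 CLint (μl/min/mg protein) derived from compound depletion in human liver microsomes following a published standardized early-DMPK protocol; replicate determinations given as arithmetic mean.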
A short description of data set [4]: Solubility (Test F). Type of data set: physicochemical. Particulars: arithmetic mean if run multiple times. The procedure:
The assay was conducted according to the Solubility Assay described in pages 164-167 of Wernevik, J. et al., “A Fully Integrated Assay Panel for Early Drug Metabolism and Pharmacokinetics Profiling”, Assay and Drug Development Technologies, 2020, 18(4), 157-179. Data are reported in Table 36 as solubility ([…]. Where the assay was run multiple times for the same compound, the arithmetic mean is reported.

Data set [5] can be described thus: Human Plasma Protein Binding (Test B). The data set is classed as in vitro ADME. The following applies: fraction unbound (fu). The method, boiled down:
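Values given as % free (fu) in human plasma, using the method of Wernevik et al. (2020). For compounds tested more than once, the arithmetic mean is given.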

Data set [6] addresses T1, human RXFP1 (Homo sapiens, UniProt Q9HBX9).
T1 sequence (Q9HBX9 1-757): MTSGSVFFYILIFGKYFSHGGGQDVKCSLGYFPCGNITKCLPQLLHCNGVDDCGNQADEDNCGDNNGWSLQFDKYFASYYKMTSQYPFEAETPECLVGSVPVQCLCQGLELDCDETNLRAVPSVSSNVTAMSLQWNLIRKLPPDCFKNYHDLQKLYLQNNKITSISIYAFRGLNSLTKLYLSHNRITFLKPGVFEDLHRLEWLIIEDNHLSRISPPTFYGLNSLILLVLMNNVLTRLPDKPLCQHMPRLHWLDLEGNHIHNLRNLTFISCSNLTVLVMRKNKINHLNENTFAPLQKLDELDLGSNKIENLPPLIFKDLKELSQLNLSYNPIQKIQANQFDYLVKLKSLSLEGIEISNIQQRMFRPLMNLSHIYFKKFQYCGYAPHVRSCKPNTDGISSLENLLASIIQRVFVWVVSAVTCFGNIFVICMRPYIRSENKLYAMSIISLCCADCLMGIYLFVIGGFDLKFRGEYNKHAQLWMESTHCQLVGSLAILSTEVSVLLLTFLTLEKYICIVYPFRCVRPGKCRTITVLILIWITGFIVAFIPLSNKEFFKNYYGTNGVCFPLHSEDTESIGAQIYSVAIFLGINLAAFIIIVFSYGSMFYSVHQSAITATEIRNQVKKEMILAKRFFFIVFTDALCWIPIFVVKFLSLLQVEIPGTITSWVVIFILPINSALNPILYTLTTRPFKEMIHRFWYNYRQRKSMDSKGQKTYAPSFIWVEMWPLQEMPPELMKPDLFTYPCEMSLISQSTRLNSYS
The experiment in a line: RXFP1 Hu cAMP (Test A). The data set is classed as cell-based. The arrangement: expressed in transfected cells; host or cells: Jump-In T-REx CHO-K1 cells (ThermoFisher), induced with 10 ng/ml doxycycline for 24 h. The method, boiled down:
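Doxycycline-induced (10 ng/ml, 24 h) CHO-K1 cells stably expressing human RXFP1; cAMP read by competitive HTRF after 2 h at room temperature, with 0.5 mM IBMX final.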

The nature of data set [7]: Rat Hepatocyte Stability (Test E). Type of data set: in vitro ADME. Particulars: rat, hepatocytes, geometric mean if run multiple times. The method, boiled down: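 Intrinsic clearance in rat hepatocytes, expressed as μl/min/10^6 cells, following the literature integrated DMPK panel method. Repeat determinations combined as geometric mean.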
Where [8] appears, read: RXFP1 Hu cAMP, read-out: Test A EC50.

≈ marks a conversion by molar mass, not a printed value. Like-named read-outs stand apart in the source and are kept apart here.

Turning to serelaxin, the “significant blood pressure drop” value in data set [1] (approximately one third of the patients, after receiving serelaxin intravenously) is recorded as above 40 mm Hg. Moreover, the “markers of cardiac, renal and hepatic damage and congestion” value in data set [1] (continuous intravenous administration to hospitalized patients) was “improved”. For the same compound, the “clearance from the patients' circulation” value in data set [1] (patients, positive effects rapidly disappeared once intravenous injection stopped) was “rapid clearance”.
By hepatocyte CLint is commonly meant a measure of how fast metabolising enzymes remove a compound, apart from limits set by blood flow. The low end stands for greater metabolic stability, the high end for faster metabolism. Usually microsomal CLint stands for a measure of how fast metabolising enzymes remove a compound, apart from limits set by blood flow. Low values mean slow turnover, high ones rapid turnover. For orientation: solubility means the concentration that dissolves in the medium under given conditions. Low readings indicate a poorly soluble substance, high ones a readily soluble substance. As usually defined, the EC50 is the concentration needed to bring the measured effect to its halfway point. On to `CCC(C)(C)CNC(=O)[C@H]1CCC[C@H]1NC(=O)c1cc(O[C@H]2CC[C@@](C)(C(=O)O)CC2)c(F)cc1OC` [Example 58, (1S,4s)-4-(5-(((1R,2S)-2-((2,2-Dimethylbutyl)carbamoyl)cyclopentyl)carbamoyl)-2-fluoro-4-methoxyphenoxy)-1-methylcyclohexane-1-carboxylic acid], for which the hepatocyte CLint at 1 µM in data set [2] amounted to 1.9 µL/min/1e6 cells. The compound also returned a microsomal CLint in data set [3] of 6.5 µL/min/mg. The solubility in data set [4] was above 1000 µM. Also, the “Test B Human Plasma Protein Binding (% free)” value in data set [5] worked out at 7 % free. In data set [6] (RXFP1 Hu cAMP), the “Test A Sinf” value was 99%. In data set [6] (setting [8]), the EC50 was 260 nM. Moreover, in data set [7], the hepatocyte CLint came out at 19 µL/min/1e6 cells.
In data set [2], `COc1cc(F)c(-c2cnn(CC(=O)O)c2)cc1C(=O)N[C@H]1[C@@H](C(=O)Nc2cccc(S(=O)(=O)C(F)(F)F)c2)[C@@H]2C=C[C@H]1C2` [Example 271, 2-(4-(2-Fluoro-4-methoxy-5-(((1R,2R,3S,4S)-3-((3-((trifluoromethyl)sulfonyl)phenyl)carbamoyl)bicyclo[2.2.1]hept-5-en-2-yl)carbamoyl)phenyl)-1H-pyrazol-1-yl)acetic acid] gave an intrinsic clearance (hepatocyte CLint) at 1 µM of 3.7 µL/min/1e6 cells. This compound came in with a microsomal CLint in data set [3] below 3 µL/min/mg. Also, the solubility in data set [4] was 920 µM (≈ 586 µg/mL). For the same compound, the “Test B Human Plasma Protein Binding (% free)” value in data set [5] came out at 0.81 % free. Also, the “Test A Sinf” value in data set [6] (RXFP1 Hu cAMP) came to 98%. For the same compound, the hepatocyte CLint in data set [7] is 7 µL/min/1e6 cells.
Consider `COc1cc(C#N)c(O[C@H]2CC[C@@](C)(C(=O)O)CC2)cc1C(=O)N[C@@H]1[C@@H]2CC[C@@H](C2)[C@@H]1C(=O)NCC(C)(C)C(F)(F)F` [Example 502, (1S,4s)-4-(2-Cyano-4-methoxy-5-(((1R,2R,3S,4S)-3-((3,3,3-trifluoro-2,2-dimethylpropyl)carbamoyl)bicyclo[2.2.1]heptan-2-yl)carbamoyl)phenoxy)-1-methylcyclohexane-1-carboxylic acid], for which the hepatocyte CLint at 1 µM in data set [2] is 5.3 µL/min/1e6 cells. Besides, the microsomal CLint in data set [3] is below 4.5 µL/min/mg. For the same compound, in data set [4], the concentration in solution (solubility) came to 910 µM (≈ 540 µg/mL). Further, the “Test B Human Plasma Protein Binding (% free)” value in data set [5] was 4 % free. In data set [6] (RXFP1 Hu cAMP), the “Test A Sinf” value turned out to be 106%. In addition, the EC50 in data set [6] (setting [8]) came to 8.5 nM. Moreover, the hepatocyte CLint in data set [7] was 7.2 µL/min/1e6 cells.
Regarding `COc1c(C#N)cc(O[C@H]2CC[C@@](C)(C(=O)O)CC2)cc1C(=O)N[C@@H]1[C@H]2CC[C@H](C2)[C@@H]1C(=O)NCC1(C)CCC1` [Example 404], in data set [2], the hepatocyte CLint at 1 µM amounted to 11 µL/min/1e6 cells. This compound gave a microsomal CLint in data set [3] of 50 µL/min/mg. For the same compound, in data set [4], the solubility is recorded as 1000 µM (≈ 552 µg/mL). Also, the “Test B Human Plasma Protein Binding (% free)” value in data set [5] is listed as 2.3 % free. Besides, the EC50 in data set [6] (Test A EC50, RXFP1 Hu cAMP) came to 86 nM. This compound also displayed a hepatocyte CLint in data set [7] of 19 µL/min/1e6 cells.
As to `COc1cc(F)c(O[C@H]2CC[C@@H](C(=O)O)CC2)cc1C(=O)NC1=C(C(=O)Nc2ccc(F)c(C(F)(F)F)c2)CCCC1` [Example 213, (1s,4s)-4-(2-Fluoro-5-((2-((4-fluoro-3-(trifluoromethyl)phenyl)carbamoyl)cyclohex-1-en-1-yl)carbamoyl)-4-methoxyphenoxy)cyclohexane-1-carboxylic acid], the hepatocyte CLint at 1 µM in data set [2] worked out at 4 µL/min/1e6 cells. The compound further had an intrinsic clearance (microsomal CLint) in data set [3] of 16 µL/min/mg. For the same compound, the concentration in solution in data set [4] (solubility) came to 6.5 µM (≈ 3.88 µg/mL). Besides, the “Test B Human Plasma Protein Binding (% free)” value in data set [5] came out at 0.18 % free. In data set [6] (RXFP1 Hu cAMP), the “Test A Sinf” value is 98%. In addition, the EC50 in data set [6] (setting [8]) was determined as 180 nM. Moreover, the hepatocyte CLint in data set [7] came to 8 µL/min/1e6 cells.
`COc1cc(F)c(O[C@H]2CC[C@@](C)(C(=O)O)CC2)cc1C(=O)N[C@@H]1[C@H]2CC[C@H](C2)[C@@H]1C(=O)NC(C(C)C)C(C)C` [Example 40] had a hepatocyte CLint at 1 µM in data set [2] of 30 µL/min/1e6 cells. In data set [3], the intrinsic clearance (microsomal CLint) came to 190 µL/min/mg. In data set [4], this compound yielded a solubility of 2.5 µM (≈ 1.4 µg/mL). Moreover, in data set [5], the “Test B Human Plasma Protein Binding (% free)” value came to 3.4 % free. In data set [6] (RXFP1 Hu cAMP), the “Test A Sinf” value came to 97%. Moreover, the EC50 in data set [6] (setting [8]) came to 810 nM. Moreover, the hepatocyte CLint in data set [7] was determined as 52 µL/min/1e6 cells.
The compound `COc1cc(F)c(O[C@H]2CC[C@@H](C(=O)O)CC2)cc1C(=O)N[C@@H]1[C@@H]2CC[C@@H](C2)[C@@H]1C(=O)Nc1cccc(S(F)(F)(F)(F)F)c1` [Example 509, (1S,4s)-4-(2-Fluoro-4-methoxy-5-(((1R,2R,3S,4S)-3-((3-(pentafluoro-A6-sulfaneyl)phenyl)carbamoyl)bicyclo[2.2.1]heptan-2-yl)carbamoyl)phenoxy)cyclohexane-1-carboxylic acid] came in with a hepatocyte CLint at 1 µM in data set [2] of 5 µL/min/1e6 cells. In data set [3], this compound had a microsomal CLint of 9.4 µL/min/mg. The solubility in data set [4] turned out to be 1000 µM (≈ 651 µg/mL). Moreover, the “Test B Human Plasma Protein Binding (% free)” value in data set [5] is below 0.070 % free. Moreover, the “Test A Sinf” value in data set [6] (RXFP1 Hu cAMP) is 125%. The EC50 in data set [6] (setting [8]) came out at 13 nM. Further, the hepatocyte CLint in data set [7] stood at 7 µL/min/1e6 cells.
Compound `COc1cc(C#N)c(O[C@H]2CC[C@@](C)(C(=O)O)CC2)cc1C(=O)N[C@@H]1[C@H]2CC[C@H](C2)[C@@H]1C(=O)NC12CC(C1)C2` [Example 141, (1S,4s)-4-(5-(((1S,2R,3S,4R)-3-(Bicyclo[1.1.1]pentan-1-ylcarbamoyl)-bicyclo[2.2.1]heptan-2-yl)carbamoyl)-2-cyano-4-methoxyphenoxy)-1-methylcyclohexane-1-carboxylic acid] registered a hepatocyte CLint at 1 µM in data set [2] below 1 µL/min/1e6 cells. This compound gave a microsomal CLint in data set [3] of 8.3 µL/min/mg. Also, the solubility in data set [4] came to 920 µM (≈ 493 µg/mL). Besides, the “Test B Human Plasma Protein Binding (% free)” value in data set [5] is given as 16 % free. Also, in data set [6] (RXFP1 Hu cAMP), the “Test A Sinf” value came to 107%. Also, the EC50 in data set [6] (setting [8]) came out at 74 nM. For the same compound, the hepatocyte CLint in data set [7] is 17 µL/min/1e6 cells.
In data set [2], `COc1cc(F)c(O[C@H]2CC[C@@](C)(C(=O)O)CC2)cc1C(=O)N[C@@H]1[C@H]2CC[C@H](C2)[C@@H]1C(=O)NC12CC(F)(C1)C2` [Example 608] registered a hepatocyte CLint at 1 µM of 3.4 µL/min/1e6 cells. In data set [3], this compound showed a microsomal CLint of 20 µL/min/mg. Moreover, the solubility in data set [4] came to 880 µM (≈ 481 µg/mL). For the same compound, the “Test B Human Plasma Protein Binding (% free)” value in data set [5] is reported as 3.5 % free. Further, the “Test A Sinf” value in data set [6] (RXFP1 Hu cAMP) is 115%. Besides, in data set [6] (setting [8]), the EC50 was found to be 75 nM. This compound had an intrinsic metabolic clearance (hepatocyte CLint) in data set [7] of 8.2 µL/min/1e6 cells.
For `COc1cc(C#N)c(O[C@H]2CC[C@@](C)(C(=O)O)CC2)cc1C(=O)N[C@@H]1[C@H]2CC[C@H](C2)[C@@H]1C(=O)NCC(C)(C)C(F)(F)F` [Example 624], the hepatocyte CLint at 1 µM in data set [2] was found to be 3.3 µL/min/1e6 cells. The same compound showed a microsomal CLint in data set [3] of 16 µL/min/mg. In data set [4], the solubility worked out at 1000 µM (≈ 594 µg/mL). The “Test B Human Plasma Protein Binding (% free)” value in data set [5] was 12 % free. Besides, the “Test A Sinf” value in data set [6] (RXFP1 Hu cAMP) was determined as 113%. Besides, the EC50 in data set [6] (setting [8]) is 26 nM. The compound also yielded an intrinsic metabolic clearance (hepatocyte CLint) in data set [7] of 7.9 µL/min/1e6 cells.
